Measurements from the NIST ThermoML archive (doi:10.1016/j.jct.2005.12.010).
± gives the expanded uncertainty stated by the source.

Experiments:
[1] = 101 kPa, Liquid
[2] = xn = mol fraction of the nth substance listed; settings: 101 kPa, Liquid

CCCC(C)O (stereo not drawn) [pentan-2-ol]
[1]
Settings | mass density [kg/m3] | speed of sound [m/s] | viscosity [mPa·s]
293.15 K | 809.04 ± 0.94 | 1250 ± 2 | 4.001 ± 0.18
298.15 K | 805.01 ± 0.95 | 1232 ± 2 | 3.273 ± 0.15
303.15 K | 800.9 ± 0.96 | 1214 ± 2 | 2.774 ± 0.12

CCCO [propan-1-ol] + CC1CCCC1
[2], x2 = 0
Settings | speed of sound [m/s]
293.15 K | 1223 ± 2
298.15 K | 1206 ± 2
303.15 K | 1189 ± 2

CC(C)O [propan-2-ol] + CC1CCCC1
[2], x2 = 0
Settings | speed of sound [m/s]
293.15 K | 1156 ± 5
298.15 K | 1139 ± 5
303.15 K | 1121 ± 5

CC(C)O [propan-2-ol]
[1]
Settings | mass density [kg/m3] | speed of sound [m/s] | viscosity [mPa·s]
293.15 K | 785.07 ± 0.92 | 1156 ± 5 | 2.382 ± 0.11
298.15 K | 780.9 ± 0.9 | 1139 ± 5 | 2.045 ± 0.094
303.15 K | 776.6 ± 0.95 | 1121 ± 5 | 1.763 ± 0.082

CC1CCCC1 [methylcyclopentane] + CCO
[2]
Settings | mass density, 293.15 K [kg/m3] | mass density, 298.15 K [kg/m3] | mass density, 303.15 K [kg/m3] | speed of sound, 293.15 K [m/s] | speed of sound, 298.15 K [m/s] | speed of sound, 303.15 K [m/s]
x1 = 0.0475 | 784.54 ± 0.94 | 780.2 ± 0.95 | 775.84 ± 0.96 | 1156 ± 1 | 1138 ± 1 | 1121 ± 1
x1 = 0.0967 | 780 ± 0.97 | 775.6 ± 0.99 | 771.3 ± 1 | 1153 ± 1 | 1135 ± 1 | 1117 ± 1
x1 = 0.2055 | 771.61 ± 1.1 | 767.12 ± 1.1 | 762.58 ± 1.1 | 1149 ± 2 | 1130 ± 2 | 1111 ± 2
x1 = 0.2984 | 766.18 ± 1.2 | 761.61 ± 1.2 | 756.99 ± 1.2 | 1150 ± 2 | 1130 ± 2 | 1110 ± 2
x1 = 0.4014 | 761.37 ± 1.3 | 756.73 ± 1.3 | 752.03 ± 1.3 | 1153 ± 3 | 1132 ± 2 | 1111 ± 2
x1 = 0.5007 | 757.5 ± 1.4 | 752.79 ± 1.4 | 748.03 ± 1.4 | 1158 ± 3 | 1136 ± 3 | 1114 ± 3
x1 = 0.6133 | 753.79 ± 1.6 | 749.03 ± 1.6 | 744.21 ± 1.6 | 1163 ± 3 | 1141 ± 3 | 1118 ± 3
x1 = 0.7115 | 751.2 ± 1.7 | 746.42 ± 1.7 | 741.58 ± 1.8 | 1168 ± 4 | 1146 ± 4 | 1123 ± 4
x1 = 0.8124 | 748.98 ± 1.9 | 744.19 ± 1.9 | 739.34 ± 1.9 | 1175 ± 4 | 1152 ± 4 | 1129 ± 4
x1 = 0.9073 | 747.36 ± 2.1 | 742.58 ± 2.1 | 737.75 ± 2.1 | 1183 ± 5 | 1159 ± 5 | 1136 ± 5
x1 = 0.9529 | 746.95 ± 2.1 | 742.17 ± 2.1 | 737.35 ± 2.1 | 1188 ± 5 | 1164 ± 5 | 1141 ± 5
x1 = 1 | 746.64 ± 2.2 | 741.94 ± 2.2 | 737.21 ± 2.2 | 1197 ± 5 | 1174 ± 5 | 1150 ± 5

CCO [ethanol] + CC1CCCC1
[2], x2 = 0
Settings | mass density [kg/m3] | speed of sound [m/s]
293.15 K | 789.75 ± 0.91 | 1162 ± 1
298.15 K | 785.46 ± 0.92 | 1145 ± 1
303.15 K | 781.15 ± 0.94 | 1128 ± 1

CCCO [propan-1-ol]
[1]
Settings | mass density [kg/m3] | speed of sound [m/s] | viscosity [mPa·s]
293.15 K | 803.59 ± 0.95 | 1223 ± 2 | 2.159 ± 0.099
298.15 K | 799.58 ± 0.96 | 1206 ± 2 | 1.915 ± 0.089
303.15 K | 795.55 ± 0.97 | 1189 ± 2 | 1.713 ± 0.08

CC1CCCC1 [methylcyclopentane] + CC(C)O
speed of sound [m/s], [2]
Settings | 293.15 K | 298.15 K | 303.15 K
x1 = 0.0478 | 1154 ± 5 | 1136 ± 5 | 1118 ± 5
x1 = 0.1003 | 1152 ± 5 | 1134 ± 5 | 1115 ± 5
x1 = 0.2092 | 1150 ± 5 | 1130 ± 5 | 1110 ± 5
x1 = 0.2989 | 1150 ± 5 | 1129 ± 5 | 1108 ± 5
x1 = 0.4151 | 1150 ± 5 | 1129 ± 5 | 1108 ± 5
x1 = 0.4967 | 1152 ± 5 | 1131 ± 5 | 1109 ± 5
x1 = 0.603 | 1156 ± 6 | 1134 ± 6 | 1111 ± 6
x1 = 0.7118 | 1162 ± 6 | 1140 ± 6 | 1117 ± 6
x1 = 0.8061 | 1170 ± 6 | 1147 ± 6 | 1124 ± 6
x1 = 0.9026 | 1180 ± 7 | 1157 ± 7 | 1134 ± 7
x1 = 0.9555 | 1187 ± 7 | 1164 ± 7 | 1141 ± 7
x1 = 1 | 1197 ± 7 | 1174 ± 7 | 1150 ± 7

CC1CCCC1 [methylcyclopentane] + CCC(C)O
speed of sound [m/s], [2]
Settings | 293.15 K | 298.15 K | 303.15 K
x1 = 0.0503 | 1223 ± 2 | 1204 ± 2 | 1186 ± 2
x1 = 0.0966 | 1216 ± 2 | 1198 ± 2 | 1179 ± 2
x1 = 0.198 | 1205 ± 2 | 1185 ± 2 | 1165 ± 2
x1 = 0.3041 | 1194 ± 2 | 1173 ± 2 | 1153 ± 2
x1 = 0.4088 | 1186 ± 3 | 1164 ± 3 | 1143 ± 3
x1 = 0.5084 | 1180 ± 3 | 1158 ± 3 | 1137 ± 3
x1 = 0.5961 | 1177 ± 3 | 1155 ± 3 | 1133 ± 3
x1 = 0.7045 | 1176 ± 4 | 1154 ± 4 | 1132 ± 4
x1 = 0.8151 | 1180 ± 4 | 1157 ± 4 | 1134 ± 4
x1 = 0.9065 | 1185 ± 5 | 1162 ± 5 | 1139 ± 5
x1 = 0.9532 | 1189 ± 5 | 1166 ± 5 | 1143 ± 5
x1 = 1 | 1197 ± 5 | 1174 ± 5 | 1150 ± 5
